Assay results as given in paper PMC5727260, “The Sam-Sam interaction between Ship2 and the EphA2 receptor: design and analysis of peptide inhibitors” (Scientific Reports, 2017).
Positions of bridges follow the written chain, without caps; N, C: chain ends. Residues, ends and D or L forms follow the SMILES beside them. Chains are numbered I, II in the order given.

Key:
Ship2-Sam = target: T1, Ship2-Sam (Homo sapiens, UniProt O15357); assay: SPR binding of peptides to immobilized Ship2-Sam; details: for SPR binding to Ship2-Sam (RUmax): RUmax at 30 and 100 µM peptide, normalized for molecular weight
T1 construct: Its C-terminal sterile alpha motif domain (Ship2-Sam); made in house; host or cells: E. coli
T1 sequence (O15357 1196-1258 limits assumed): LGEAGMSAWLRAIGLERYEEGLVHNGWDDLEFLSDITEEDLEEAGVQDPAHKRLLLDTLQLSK
Procedure: In order to investigate the interaction with Ship2-Sam, all peptides were analysed by SPR experiments (Figs 2, 3 and S5).
SPR experiments were conducted as previously reported.
SPR assays were conducted with the following parameters: (i) flow: 20 μL/min, (ii) contact time: 4.5 min; (iii) running buffer: HBS (HEPES (10 mM), NaCl (150 mM), EDTA (3 mM), pH 7.4).
Reference channel signals were subtracted as blanks and the software BIAevaluation (version 4.1, GE Healthcare) was employed to estimate kinetic and thermodynamic parameters of the complexes.

EphA2 SAM (Homo sapiens) = EphA2 SAM (Homo sapiens) (UniProt P29317); assay: ITC; details: cited from earlier work
EphA2 SAM (Homo sapiens), sequence (P29317 901-971): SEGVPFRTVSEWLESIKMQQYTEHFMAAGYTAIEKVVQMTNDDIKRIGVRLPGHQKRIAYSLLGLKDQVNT

Row | Molecule | SPR binding to Ship2-Sam (RUmax) (Ship2-Sam) | SPR sensorgrams, saturation (Ship2-Sam; wider concentration range (Fig. S5b)) | Kd (EphA2 SAM (Homo sapiens)) [nM]
1 | Ac-GHQKRIAY-NH2 [KRI] | not able to bind Ship2-Sam |  | 
2 | CC[C@H](C)[C@H](NC(=O)[C@H](CCCNC(=N)N)NC(=O)[C@H](CCCCN)NC(C)=O)C(=O)NCC(=O)N[C@H](C(=O)N[C@@H](CCCNC(=N)N)C(=O)N[C@@H](CC(C)C)C(=O)N1CCC[C@H]1C(=O)NCC(=O)N[C@@H](Cc1c[nH]cn1)C(=O)N[C@@H](CCC(N)=O)C(=O)N[C@@H](CCCCN)C(=O)N[C@@H](CCCNC(=N)N)C(=O)N[C@@H](CSSC[C@H](NC(=O)[C@H](CO)NC(C)=O)C(=O)N[C@@H](CCCCN)C(=O)N[C@@H](CCSC)C(=O)N[C@@H](CCC(N)=O)C(=O)N[C@@H](CCC(N)=O)C(N)=O)C(=O)N[C@@H](C)C(=O)N[C@@H](Cc1ccc(O)cc1)C(=O)N[C@@H](CO)C(=O)N[C@@H](CC(C)C)C(=O)N[C@@H](CC(C)C)C(=O)NCC(=O)N[C@@H](CC(C)C)C(=O)N[C@@H](CCCCN)C(=O)N[C@@H](CC(=O)O)C(=O)N[C@@H](CCC(N)=O)C(=O)N[C@H](C(N)=O)C(C)C)C(C)C [S13-SS] (I: Ac-KRIGVRLPGHQKRCAYSLLGLKDQV-NH2 / II: Ac-SCKMQQ-NH2; disulfide I:14-II:2) | significant dose-response signal variations | does not reach saturation | 
3 | Ac-KRIAYKRIAY-NH2 [(KRI)2] | not able to bind Ship2-Sam |  | 
4 | Ship2 SAM (from UniProt O15357) |  |  | 750
